Assays:
Type in all cases: in vivo
[1] = tested on: Impatiens Dazzler ® Pink seeds; experiment: Root elongation in germinating seeds with calcium effectors; conditions: 6 mM EGTA, 5 days; for Root length: 5 mM manganese chloride or 8 ppm IBA, 25° C., 20 seeds, water 6.9; for Root growth, in words: 5 mM manganese chloride, 8 ppm IBA
Description: (§1) To investigate other mechanisms that might disrupt calcium utilization by germinating seeds leading to adverse effects on root formation and elongation, a number of known calcium effectors were analyzed. EGTA is a well-known calcium-chelating compound which binds free calcium ions. The element, manganese, has been characterized to act as a calcium channel blocker in the cellular environment of the plasma membrane, thereby inhibiting uptake and utilization of calcium by the cell. Finally, auxins, like IBA, can disrupt calcium signaling pathways in the cell, thereby disrupting cellular developmental processes like rooting. For these experiments, seeds were germinated in the presence of these compounds, and the lengths of the roots (in mm) from 20 randomly-selected seeds (per treatment) were measured. These values were then compared to the lengths of the roots from 20 randomly-selected seeds germinated in water during the same time period and under the same environmental conditions.
(§2) Approximately 100 seeds of impatiens (variety Dazzler® Pink commercially available from Ball Horticultural Company, 622 Town Road, West Chicago, Ill. 60185) were germinated in 125 mL Erlenmeyer flasks containing either 40 mL water, 6 mM EGTA, 5 mM manganese chloride or 8 ppm IBA at 25° C. in a lighted growth room on an orbital shaker. After 5 days, root lengths were measured and recorded (see Table 1 below).

[2] = tested on: Rice Cypress seeds; experiment: as above; conditions: 5 days; for Root length: 6 mM EGTA or 5 mM manganese chloride, 25° C., water 15.6
Description: as §1
Approximately 100 seeds of rice (variety Cypress obtained from LSU Rice Research Station) were germinated in 125 mL Erlenmeyer flasks containing either 40 mL water, 6 mM EGTA or 5 mM manganese chloride at 25° C. in a lighted growth room on an orbital shaker. After 5 days, root lengths were measured and recorded (see Table 1 below).

[3] = tested on: Pepper Holiday Flame seeds; experiment: as above; conditions: 5 days; for Root length: 6 mM EGTA or 5 mM manganese chloride, 25° C., water 6.5; for Root elongation, in words: 6 mM EGTA, 5 mM manganese chloride
Description: as §1
as §2, with “pepper” for “impatiens”, “Holiday Flame” for “Dazzler® Pink”, “EGTA or” for “EGTA,”, “chloride” for “chloride or 8 ppm IBA”

[4] = tested on: Pansy Baby Bingo Sky Blue primed seeds; experiment: as above; conditions: 5 days; for Inhibition of root length versus water-treated seeds: 6 mM EGTA, 5 mM manganese chloride; for Root length: primed, 6 mM EGTA or 5 mM manganese chloride, 25° C., water 10.3
Description: as §1
as §2, with “100 primed” for “100”, “pansy” for “impatiens”, “Baby Bingo Sky Blue” for “Dazzler® Pink”, “EGTA or” for “EGTA,”, “chloride” for “chloride or 8 ppm IBA”

[5] = tested on: Tomato Tumbler seeds; experiment: as above; conditions: 5 days; for Root length: 6 mM EGTA or 5 mM manganese chloride, 25° C., water 6.5; for Root elongation, in words: 6 mM EGTA, 5 mM manganese chloride
Description: as §1
as §2, with “tomato” for “impatiens”, “Tumbler” for “Dazzler® Pink”, “EGTA or” for “EGTA,”, “chloride” for “chloride or 8 ppm IBA”

[6] = tested on: Arabidopsis seeds; experiment: Root development of germinating seeds with sucrose in nutrient medium; conditions: 1% (w/v) added to the nutrient medium
Source text: (§3) Also different, Arabidopsis, but not impatiens, root development was sensitive to an ammonium/potassium ionic imbalance in the nutrient medium.

[7] = tested on: germinating impatiens seeds; experiment: as above; conditions: 1% (w/v) in the nutrient medium, liquid or solid environment
Source text: as §3

[8] = tested on: Vinca Coconut Cooler seeds; experiment: Root elongation in germinating seeds with calcium effectors; conditions: 6 mM EGTA or 5 mM manganese chloride, 5 days, 25° C.
Description: as §1
After 5 days, root lengths were measured and recorded (see Table 1 below).

Compound	Root length [1] [mm]	Root growth, in words [1]	Root length [2] [mm]	Inhibition of root elongation ([2]; 6 mM EGTA) [%]	Root length [3] [mm]	Root elongation, in words [3]	Inhibition of root length versus water-treated seeds [4]	Root length [4] [mm]	Root length [5] [mm]	Root elongation, in words [5]	root development, in words [6]	root development, in words [7]	Root elongation, in words ([2]; 5 mM manganese chloride)	Root length ([8]; water 12.3) [mm]	Root length ([8]; water 12.3, listed as manganese) [mm]
O=C(O)CN(CCOCCOCCN(CC(=O)O)CC(=O)O)CC(=O)O [EGTA, ethylene glycol-bis (β-aminoethyl ether)-N,N,N′,N′-tetraacetic acid]	0.0	totally inhibited	3.2	~80	1.8	inhibited root elongation	an even greater extent	0.4	1.8	significantly inhibited					
O=C(O)CCCc1c[nH]c2ccccc12 [IBA, indole-3-butyric acid]	0.0	totally inhibited													
OC[C@H]1O[C@@](CO)(O[C@H]2O[C@H](CO)[C@@H](O)[C@H](O)[C@H]2O)[C@@H](O)[C@@H]1O [sucrose]											stimulate root development	severely inhibited			
manganese chloride	0.2	Some minor root growth	15.6		4.2	inhibited root elongation	70-90%	1.9	4.4	Modest inhibition			no effect	3.0	3

— patent publication US20020026659A1, “Developed seed and methods for making the same” (priority 1999, published 2002)
